What was measured:
Type in all cases: binding
CYP147G1 [1] = target: T1, CYP147G1 (Mycobacterium marinum, UniProt B2HE89); test: UV/Vis heme spin-state shift; conditions: purified ferric enzyme; also oxidised to indigo in E. coli with FdR1/Fdx3
T1 construct: produced in E. coli, purified by two ion exchange steps; ferric heme
T1 sequence (B2HE89 1-422): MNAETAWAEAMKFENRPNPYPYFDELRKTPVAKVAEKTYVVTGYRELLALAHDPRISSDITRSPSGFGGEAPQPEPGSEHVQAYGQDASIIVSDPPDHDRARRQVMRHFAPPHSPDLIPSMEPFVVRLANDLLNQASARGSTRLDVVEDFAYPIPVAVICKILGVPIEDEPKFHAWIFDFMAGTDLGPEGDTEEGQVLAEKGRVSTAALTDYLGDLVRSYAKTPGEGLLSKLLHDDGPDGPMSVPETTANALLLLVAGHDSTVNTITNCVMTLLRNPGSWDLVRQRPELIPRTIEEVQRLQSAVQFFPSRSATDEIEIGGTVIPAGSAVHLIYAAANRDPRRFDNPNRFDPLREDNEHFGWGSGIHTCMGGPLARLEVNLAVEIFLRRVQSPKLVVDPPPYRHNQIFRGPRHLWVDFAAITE

CYP269A1 = target: T2, CYP269A1 (Mycobacterium marinum, UniProt B2HPM5); test: UV/Vis heme Soret shift titration
T2 construct: produced in E. coli and purified; high-spin-like ferric heme (Soret 390 nm); gene near ferredoxin gene Mmar_3973 (Fdx4)
T2 sequence (B2HPM5 1-403): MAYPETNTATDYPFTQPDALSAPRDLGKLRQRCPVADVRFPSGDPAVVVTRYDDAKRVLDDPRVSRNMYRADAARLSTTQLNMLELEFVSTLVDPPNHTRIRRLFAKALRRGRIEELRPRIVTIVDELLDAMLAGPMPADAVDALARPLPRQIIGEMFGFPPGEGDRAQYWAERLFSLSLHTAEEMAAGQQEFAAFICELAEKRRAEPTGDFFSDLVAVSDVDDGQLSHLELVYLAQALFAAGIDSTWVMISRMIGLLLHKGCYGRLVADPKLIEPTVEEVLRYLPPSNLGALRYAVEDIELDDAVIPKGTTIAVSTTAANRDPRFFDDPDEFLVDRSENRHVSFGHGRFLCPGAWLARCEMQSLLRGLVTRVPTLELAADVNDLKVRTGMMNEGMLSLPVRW

CYP147G1 [2] = target: T1, CYP147G1; test: UV/Vis heme spin-state shift titration; conditions: read-out: dissociation constant
CYP278A1 = target: T3, CYP278A1 (Mycobacterium marinum, UniProt B2HE37); test: UV/Vis heme spin-state shift titration
T3 construct: produced in E. coli and purified; ferric heme; gene near ferredoxin gene Mmar_2879 (Fdx2)
T3 sequence (B2HE37 1-427): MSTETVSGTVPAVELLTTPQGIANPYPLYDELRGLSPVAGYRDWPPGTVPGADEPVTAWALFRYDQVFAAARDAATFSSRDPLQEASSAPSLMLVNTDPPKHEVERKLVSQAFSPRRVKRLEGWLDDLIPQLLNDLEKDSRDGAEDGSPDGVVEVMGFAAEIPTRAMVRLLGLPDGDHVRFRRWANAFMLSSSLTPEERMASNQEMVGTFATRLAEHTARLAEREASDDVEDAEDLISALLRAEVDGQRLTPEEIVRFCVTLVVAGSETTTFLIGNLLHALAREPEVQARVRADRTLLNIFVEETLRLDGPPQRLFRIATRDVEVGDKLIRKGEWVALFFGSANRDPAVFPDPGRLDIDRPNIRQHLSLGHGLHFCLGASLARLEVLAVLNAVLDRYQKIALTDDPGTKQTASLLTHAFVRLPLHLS

CYP150A5 = target: T4, CYP150A5 (Mycobacterium marinum, UniProt B2HG29); test: UV/Vis heme spin-state shift titration
T4 construct: produced in E. coli and purified; ferric heme; gene near ferredoxin gene Mmar_4736 (Fdx8)
T4 sequence (B2HG29 1-423): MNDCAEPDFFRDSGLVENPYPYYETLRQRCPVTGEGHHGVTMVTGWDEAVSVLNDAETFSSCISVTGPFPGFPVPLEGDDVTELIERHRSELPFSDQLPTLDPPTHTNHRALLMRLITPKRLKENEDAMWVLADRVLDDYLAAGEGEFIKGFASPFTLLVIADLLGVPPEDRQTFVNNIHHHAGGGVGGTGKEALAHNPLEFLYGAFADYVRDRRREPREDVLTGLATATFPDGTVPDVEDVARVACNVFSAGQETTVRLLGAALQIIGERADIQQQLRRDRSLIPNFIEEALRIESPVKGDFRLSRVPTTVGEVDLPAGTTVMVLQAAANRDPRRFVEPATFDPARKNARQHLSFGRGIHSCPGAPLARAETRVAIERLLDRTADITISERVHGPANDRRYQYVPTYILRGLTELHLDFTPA

c1ccc2[nH]ccc2c1 [indole]
% high-spin (CYP147G1 [1]): < 5%

Clc1ccc(COC(Cn2ccnc2)c2ccc(Cl)cc2Cl)c(Cl)c1 (centres unmarked) [miconazole]
Kd (CYP269A1): 0.05 ± 0.007 µM

CCCCCCCCCCC(=O)O [undecanoic acid]
Kd (CYP147G1 [2]): 25 ± 4 µM

CC(=O)/C=C/C1=C(C)CCCC1(C)C [β-ionone]
Kd (CYP278A1): 5.1 ± 1.5 µM
Kd (CYP150A5): 41 ± 3 µM

Reference: article PMC6237146, “Electron transfer ferredoxins with unusual cluster binding motifs support secondary metabolism in many bacteria” (Chemical Science, 2018)
